Reference: paper PMC4663518, “Cytotoxic Indole Alkaloids against Human Leukemia Cell Lines from the Toxic Plant Peganum harmala” (Toxins, 2015)

Experiments:
HL-60 cells = assay: MTT cytotoxicity assay, HL-60; assay type: cell-based, human; conditions: Mean ± SD
Protocol: (§1) Cytotoxicity was measured by the MTT assay.

KG1 cells = assay: MTT cytotoxicity assay, KG1; assay type: cell-based, human; conditions: Mean ± SD
Protocol: as §1

U-937 cells [1] = assay: MTT cytotoxicity assay, U-937; assay type: cell-based, human; conditions: Mean ± SD
Protocol: as §1

HEL cells = assay: MTT cytotoxicity assay, HEL; assay type: cell-based, human; conditions: 48 h, Mean ± SD
Protocol: as §1

in vitro = conditions: human
Protocol: (§10) Meanwhile, the cytotoxicity against human embryonic kidney cells (HEK-293) was evaluated for their toxic selectivity.
(§11) Human leukemia cell lines (U-937, HL-60, KG1 and HEL) and human embryonic kidney cells (HEK-293) were purchased from American Type Culture Collection (ATCC) (Manassas, VA, USA). Cells were cultured in RPMI 1640 supplemented with 10% fetal bovine serum (Gibco Life Technologies, Grand Island, NY, USA), 50 U/mL penicillin and 100 μg/mL streptomycin and maintained in a humidified atmosphere containing 5% CO2 at 37 °C. Penicillin and streptomycin were purchased from Hyclone (Logan, UT, USA).
(§12) Cytotoxicity was measured by the MTT assay. Briefly, cells were cultured in RPMI 1640 supplemented with 10% fetal bovine serum, 10 mmol/L Hepes, 50 units/mL penicillin, 50 μg/mL streptomycin, and 100 μg /mL gentamicin and were maintained at 37 °C in 5% CO2. A total of 2.5 × 10^4 cells in growth media were placed in each well of a 96-well flat-bottom plate. After 12 h of incubation, the growth medium was replaced by media containing different concentrations of the test samples. Cytotoxicity was determined at 48 h from the MTT absorbance (490 nm) reading for each concentration compared to the control. At least three replications for each sample were used to determine the cytotoxicity.

[2] = MTT cytotoxicity assay, HEK-293 (toxic selectivity); conditions: human, HEK-293 cells, IC50 HEK-293, MTT, Mean ± SD
Protocol: as §10, §11, §12

Ras = assay: Western blot Ras in U-937 cells; assay type: cell-based, human; conditions: 2.0 µmol/L, 0, 24 and 48 h
Description: (§2) Unusual activation of Ras/Raf/MAPK signaling pathway is one of main characteristic of human cancer. In this study, the Ras/Raf/MAPK pathway was investigated in HMC-induced U-937 cell apoptosis. Genistein, a broad-spectrum inhibitor of protein tyrosine kinases (PTKs), was used to detect the cell viability after HMC treatment. […] Moreover, the expressions of Ras/Raf/ERK in U-937 cells were detected after HMC treatment in different time courses.
(§3) Figure 3 Apoptosis via Ras/Raf/ERK signaling pathway in U-937 cells after HMC treatment. (A) Cell viability was assessed using MTT method in U-937 cells after pretreated by 10 µmol/L Genistein for 1 h, and then the cells were incubated without or with 2.0 µmol/L HMC for 48 h. […] Data are presented as means ± SEM of three independent tests. * p < 0.05 versus control, ** p < 0.01 versus control.
(§4) U-937 cells were treated with 2.0 µmol/L HMC for 0, 24 and 48 h, respectively. […] After 14,000× g centrifugation for 15 min, the protein content of supernatant was determined by the Bio-Rad DC protein assay (Bio-Rad Laboratories, Hercules, CA, USA). […] Proteins were detected using primary antibodies, followed by HRP-conjugated secondary antibody. Labeling was detected using the ECL system (Amersham Biosciences Corp., Piscataway, NJ, USA).

Caspase 3 = Caspase 3 activation in U-937 cells; assay type: cell-based, human; conditions: 2.0 μmol/L, 24 h
Protocol: (§5) Since Bcl-2 family members were critical regulators of the mitochondrial pathway that induced intrinsic caspase activation, RT-PCR was applied to detect the mRNA level of Bax and Bcl-2 in HMC-treated U-937 cells. […] Meanwhile, Western blot analyses were carried out to observe the expressions of Bcl-2 and Bax.
(§6) U-937 cells were treated with 2.0 µmol/L HMC for 0, 24 and 48 h, respectively. The whole cells were collected, and then the cell pellets were resuspended with RIPA buffer that contained a mixture of protease inhibitors at 4 °C for 30 min. After 14,000× g centrifugation for 15 min, the protein content of supernatant was determined by the Bio-Rad DC protein assay (Bio-Rad Laboratories, Hercules, CA, USA). […] Proteins were detected using primary antibodies, followed by HRP-conjugated secondary antibody. Labeling was detected using the ECL system (Amersham Biosciences Corp., Piscataway, NJ, USA).

U-937 cells [3] = assay: ATP luminescence level; assay type: cell-based, human; conditions: 2.0 μmol/L, 24 h
Protocol: (§7) To make it clear whether HMC-induce apoptosis was related to mitochondrial function, mitochondrial transmembrane potential was assessed using Rhodamine 123. […] Meanwhile, the ATP level of mitochondria was measured in U-937 cells treated by HMC.
ATP luminescence was detected according to the manufactured information to evaluate the mitochondrial damage after 2.0 µmol/L HMC insulting. U-937 cells were treated without or with HMC for 24 h. After incubation, equilibrate the plates and its contents at room temperature for 30 min. One hundred microliters of cell titer reagent was added to each well in a 96-well plate and the plate was shaken gently for 2 min to induce cell lysis. The plate was incubated at room temperature for 10 min to stabilize luminescent signal and then record luminescence.

U-937 cells [4] = assay: Mitochondrial transmembrane potential, Rhodamine 123; assay type: cell-based, human; conditions: Rhodamine 123, compared with the control group
Description: (§8) Figure 2 HMC initiated apoptosis in U-937 cells through mitochondrial and Caspase cascade. (A) Apoptotic U-937 cells were observed after the cells were stained by Hoechst 33258. (B) Mitochondrial transmembrane potential was reduced in U-937 cells stained by Rodamine123. […] (D–F) HMC impacted the mRNA levels and protein expressions of Bax and Bcl-2 in U-937 cells leading to the activation of caspase 3. Data are presented as means ± SD of three independent tests. * p < 0.05 versus control, ** p < 0.01 versus control.
as §7

p-ERK1/2 = assay: Western blot p-ERK1/2 in U-937 cells; assay type: cell-based, human; conditions: 2.0 µmol/L, 0, 24 and 48 h
Description: as §2, §3, §4

p-Raf = assay: Western blot p-Raf in U-937 cells; assay type: cell-based, human; conditions: 2.0 µmol/L, 0, 24 and 48 h
Description: as §2, §3, §4

Bax mRNA = assay: RT-PCR Bax mRNA in U-937 cells; assay type: cell-based, human; conditions: 2.0 µmol/L, 24 h
Protocol: as §5
(§9) Total RNA extraction for leukemia cells was performed by using Trizol method. U-937 cells were seeded in 6 well plates for 24 h, and then the cells were treated by 2.0 µmol/L HMC for another 24 h. After treatment, the cells were collected for RNA extraction. The forward and reversed primers of Bax were […] and […]. The forward and reversed primers of Bcl-2 were […] and […]. The forward and reversed primers of GAPDH were […] and […]. The reaction was conducted under the conditions with 94 °C for 30 s, 95 °C for 5 s, 62 °C for 30 s, 72 °C for 30 s for 30 cycles. Identity of the PCR-products was controlled by melting curve analysis. Standard curves were prepared from isolated PCR products by serial dilution. Data were normalized towards GAPDH expression and statistically analyzed.

Bcl-2 mRNA = assay: RT-PCR Bcl-2 mRNA in U-937 cells; assay type: cell-based, human; conditions: 2.0 µmol/L, 24 h
Protocol: as §5, §9

Bcl-2 = assay: Western blot Bcl-2 in U-937 cells; assay type: cell-based, human; conditions: 2.0 µmol/L, 24 h
Protocol: as §5, §6

U-937 cells [5] = assay: Hoechst 33258 staining, apoptotic morphology; assay type: cell-based, human; conditions: 2.0 μmol/L, 24 h
Description: Based on the cytotoxic results, compound 8 (HMC) has pronounced cytotoxicity against human leukemia cells, especially to U-937 cells. Therefore, it was worthy of investigating the cytotoxic mechanism of HMC in U-937 cell death. To elucidate the characteristics of HMC-induced U-937 cells, morphologic changes were examined.
as §8

total ERK = assay: Western blot total ERK in U-937 cells; assay type: cell-based, human; conditions: 2.0 µmol/L, 0, 24 and 48 h
Description: as §2, §3, §4

Bax = assay: Western blot Bax in U-937 cells; assay type: cell-based, human; conditions: 2.0 µmol/L, 24 h
Protocol: as §5, §6

[6] = tested on: human embryonic kidney cells HEK-293; assay: MTT cytotoxicity assay, HEK-293 (toxic selectivity); conditions: read-out: IC50 HEK-293; MTT, 48 h, Mean ± SD
Protocol: as §10, §11, §12

U-937 cells [7] = assay: MTT cell viability, genistein pretreatment plus HMC; assay type: cell-based, human; conditions: 10 µmol/L Genistein pretreatment 1 h, then 2.0 µmol/L HMC 48 h
Description: as §2, §3

Row | Compound | IC50 (HL-60 cells; Homo sapiens, HL-60, 48 h) [µM] | IC50 (KG1 cells; Homo sapiens, KG-1, 48 h) [µM] | IC50 (U-937 cells [1]; Homo sapiens, U-937, 48 h) [µM] | IC50 (HEL cells; Homo sapiens, HEL) [µM] | IC50 at 48 h (in vitro) [µM] | further results
1 | N.N.[Cl][Pt][Cl] [Cisplatin, cisplatin, reference compound] | – | – | – | – | – | IC50 (HL-60 cells; 48 h): 13.5 ± 0.4 µM; IC50 (KG1 cells; 48 h): 4.1 ± 0.3 µM; IC50 (U-937 cells [1]; 48 h): 6.3 ± 0.5 µM; IC50 (HEL cells): 7.7 ± 0.2 µM
2 | OC[C@H]1O[C@@H](OCCc2c[nH]c3ccccc23)[C@H](O)[C@@H](O)[C@@H]1O [Compound 1, 2-(indol-3-yl)ethyl-β-D-glucopyranoside] | 78.9 ± 3.8 | 23.1 ± 1.4 | 52.1 ± 2.6 | 121 ± 5.5 | > 200 | –
3 | C[C@@H]1O[C@@H](OC[C@H]2O[C@@H](OCCc3c[nH]c4ccccc34)[C@H](O)[C@@H](O)[C@@H]2O)[C@H](O)[C@H](O)[C@H]1O [Compound 2, 2-(indol-3-yl)ethyl-α-L-rhamnopyranosyl-(1 → 6)-β-D-glucopyranoside] | 55.3 ± 3.4 | 60.2 ± 2.7 | 80.2 ± 4.5 | 131 ± 4.9 | > 200 | –
4 | COc1ccc2c(c1)NC(=O)[C@]2(O)CCNC(C)=O [Compound 3, (S)-3-hydroxy-3-(N-acetyl-2-aminoethyl)-6-methoxyindol-2-one] | 36.2 ± 1.1 | > 200 | 75.3 ± 2.8 | 55.3 ± 3.2 | 122 ± 5.7 | –
5 | COc1ccc2c(c1)[nH]c1c(C)nccc12 [Compound 5, harmine] | 71.2 ± 3.3 | 62.7 ± 2.8 | 23.1 ± 0.9 | 20.3 ± 1.1 | – | IC50 at 48 h [2]: > 200 µM
6 | COc1ccc2c([nH]c3c(C)nccc32)c1O[C@@H]1O[C@H](CO)[C@@H](O)[C@H](O)[C@H]1O [Compound 6, ruin] | 60.7 ± 2.9 | 44.5 ± 2.1 | 30.6 ± 1.2 | 71.6 ± 2.7 | > 200 | –
7 | COC(=O)c1nccc2c1[nH]c1cc(OC)ccc12 [Compound 7, harmic acid methyl ester] | 44.3 ± 2.1 | 56.8 ± 2.5 | 22.3 ± 1.4 | 35.2 ± 2.8 | 164 ± 8.1 | –
8 | COc1ccc2c3c([nH]c2c1)C=NCC3 [Compound 8, harmalacidine] | 61.3 ± 2.8 | 32.6 ± 1.7 | 3.1 ± 0.2 | 25.7 ± 1.1 | – | expression of Ras (Ras): down-regulate; Caspase 3 activation (Caspase 3): activated; ATP level (U-937 cells [3]): reduce; mitochondrial transmembrane potential (U-937 cells [4]): obviously reduced; expression of p-ERK1/2 (p-ERK1/2): down-regulate; expression of p-Raf (p-Raf): down-regulate; Bax mRNA level (Bax mRNA): increase; Bcl-2 mRNA level (Bcl-2 mRNA): reduce; expression of anti-apoptotic Bcl-2 (Bcl-2): began to decrease; morphologic alterations of cell apoptosis (membrane blebbing, nuclear condensation, granular apoptotic bodies) (U-937 cells [5]): characteristic morphologic alterations of cell apoptosis were observed; IC50 at 48 h [2]: > 200 µM; total ERK (total ERK): kept no change; expression of pro-apoptotic Bax (Bax): began to increase
9 | COc1ccc2c3c([nH]c2c1)C(C)=NCC3 [Compound 9, harmaline] | 55.3 ± 2.4 | 46.8 ± 1.9 | 10.6 ± 0.7 | 20.1 ± 1.2 | – | IC50 at 48 h [2]: 156 ± 7.2 µM
10 | COc1ccc2c3c([nH]c2c1)C(C)=NCC3 [Compound 10, protonated harmaline] | – | – | – | – | – | IC50 (HL-60 cells; 48 h): 45.7 ± 2.1 µM; IC50 (KG1 cells; 48 h): 56.9 ± 2.3 µM; IC50 (U-937 cells [1]; 48 h): 15.3 ± 0.7 µM; IC50 [6]: 132 ± 4.6 µM; IC50 (HEL cells): 21.2 ± 1.1 µM
11 | CCc1cc2nccc3c4ccc(OC)cc4n(c1=O)c23 [Compound 11, luotonin C] | 87.3 ± 3.7 | 113 ± 5.6 | 49.6 ± 1.9 | 68.3 ± 3 | > 200 | –
12 | COc1ccc2c3c([nH]c2c1)-c1nc2ccccc2c(=O)n1CC3 [Compound 12, 11-methyoxyl-rutaecarpine] | 93.8 ± 6.8 | 88.1 ± 3.7 | 55.3 ± 1.7 | 121 ± 5.5 | > 200 | –
13 | O=c1c(-c2ccc(O)cc2)coc2cc(O)cc(O)c12 [genistein, Genistein] | – | – | – | – | – | cell viability after HMC co-incubation compared with HMC-treated only (U-937 cells [7]): significantly decrease
14 | harmol [Compound 4] | – | – | – | – | – | IC50 (HL-60 cells; 48 h): 62 ± 2.8 µM; IC50 (KG1 cells; 48 h): 47.7 ± 2.3 µM; IC50 (U-937 cells [1]; 48 h): 46.1 ± 2 µM; IC50 [6]: > 200 µM; IC50 (HEL cells): 54.6 ± 2.3 µM
